Test in all cases: DTP human tumour cell line panel, 48 h
In experiment [1] the test system is BT-549 breast.
The subject of experiment [2] is DU-145 prostate.
The subject of experiment [3] is HCC-2998 colon.
The test system of experiment [4] is IGROV1 ovarian.
Experiment [5] relates to MDA-MB-435.
In experiment [6] the test system is SK-MEL-2 melanoma.
Experiment [7] relates to SK-MEL-28 melanoma.
Experiment [8] concerns UACC-257 melanoma.
Experiment [9] relates to UACC-62 melanoma.
For experiment [10], the system named is A498 renal.

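Step 1: Grow cells in 96-well plates. Step 2: Expose to compound for 48 hours at 5 concentrations. Step 3: Interpolate endpoints linearly; if unreached, use highest concentration. Abbreviation: GI50, concentration required for 50% inhibition of growth. TGI: concentration producing complete growth inhibition.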

Usually TGI stands for the concentration giving total growth inhibition. Usually GI50 stands for the concentration giving 50% growth inhibition.

For `Cc1ccc(-c2nc(N/N=C/c3ccc(O)cc3)c3ccccc3n2)cc1`, the total growth inhibition concentration (TGI) is above 100 µM in [1]; 75.2 µM in experiment [2]; 30.8 µM in experiment [3]; above 100 µM in [4]; 48.2 µM in experiment [5]; 32.7 µM in experiment [6]. Moreover, the values for the TGI in [7], in experiment [8] and in experiment [9] were 81.5 µM, 15.4 µM and 26.4 µM, respectively.

With `CCN(CC)CCN1C(=O)c2c(c3c4ccccc4[nH]c3c3ccc4ccccc4c23)C1=O`, the GI50 in experiment [10] was 1.32 µM; in experiment [2], 1.65 µM; in [3], 1.53 µM; in experiment [4], 1.43 µM; in experiment [5], 1.77 µM; in [6] it was 2.51 µM. For the same compound, the GI50 in experiment [7] was 1.74 µM; in [8], 1.73 µM; in [9] it was 1.57 µM. Further, the TGI in experiment [10] turned out to be 2.61 µM; in experiment [2], 3.06 µM; in [3] it was 3.08 µM; in experiment [4] it was 2.83 µM; in experiment [5], 3.17 µM; in experiment [6] it was 6.5 µM. Besides, the results for the TGI in experiment [7], in [8] and in experiment [9] were 3.18 µM, 3.27 µM and 2.97 µM, respectively.

Consider `O=C(Nc1cccc([N+](=O)[O-])c1)c1n[nH]n(-c2cccc([N+](=O)[O-])c2)c1=O`, for which the TGI in [10], in experiment [2], in experiment [4], in [5], in [6] and in [7] was above 100 µM throughout. The TGI in experiment [8] and in [9] was above 100 µM in each case.

Consider `c1csc(-c2ccsc2-c2cccs2)c1`, for which the TGI in experiment [10] is above 100 µM; in experiment [2], above 100 µM; in [3], above 100 µM; in [4] it was above 100 µM; in [5], 53.7 µM; in experiment [8], above 100 µM. For the same compound, the TGI in experiment [9] was above 100 µM.

For `C=C1C(=O)O[C@@H]2[C@H](O)[C@@H](C)[C@@H]3C=CC(=O)[C@@]3(C)[C@@H](OC(=O)/C(C)=C/C)[C@H]12`, the TGI was found to be 6.88 µM in experiment [10]; 4.19 µM in [3]; 2.02 µM in [4]; 2.78 µM in experiment [6]; 1.34 µM in [7]; 1.87 µM in experiment [8]. In addition, the TGI in [9] was 1.11 µM.

On to `COCN1COCN=C1NC#N`, for which the TGI in experiment [10], in experiment [3], in [4], in [6], in experiment [7] and in [8] was above 100 µM each time. In addition, the TGI in experiment [9] is above 100 µM.

On to `COC1=CC2(CC(OC)=C1OC)OC21COc2ccccc2C1=O` (stereo not given), for which the TGI in experiment [10], in experiment [1], in [3], in experiment [4], in experiment [5] and in [6] was above 100 µM throughout. The TGI in experiment [7], in experiment [8] and in experiment [9] was above 100 µM throughout.

Consider `C=C(NC(=O)C(=C)NC(=O)c1csc(C2=NC3c4csc(n4)C4NC(=O)c5csc(n5)C(C(C)(O)C(C)O)NC(=O)C5CSC(=N5)/C(=C/C)NC(=O)C(C(C)O)NC(=O)c5csc(n5)C3(CC2)NC(=O)C(C)NC(=O)C(=C)NC(=O)C(C)NC(=O)C(C(C)CC)NC2C=Cc3c(C(C)O)cc(nc3C2O)C(=O)OC4C)n1)C(N)=O` (stereo not given), for which the TGI in experiment [10] was 3.59 µM; in experiment [3], above 39.9 µM; in [4], 63.8 µM; in experiment [6] it was 4.12 µM; in experiment [7], 3.71 µM; in experiment [8], 4.22 µM. Also, the TGI in experiment [9] came to 2.42 µM.

As to `COc1ccc([C@@H]2CC(=O)N2)cc1`, the TGI in [10], in [4], in experiment [6], in [7], in experiment [8] and in experiment [9] was above 100 µM in each case.

Turning to `O=C(c1ccccc1)C1S(=O)(=O)OCCOS1(=O)=O`, the TGI in experiment [3], in experiment [4], in [6], in experiment [7], in [8] and in experiment [9] was above 100 µM each time.

Consider `O=c1ccn(C2OC(CO)C(O)C2F)c(=O)n1Cc1ccccc1` (stereo not given), for which the TGI in experiment [2], in experiment [4], in experiment [5], in [7], in experiment [8] and in [9] was above 100 µM in each case.

On to `O=C1CC(c2ccccc2)=Nc2ccccc2N1`, for which the TGI in experiment [10], in [3], in [4], in experiment [6], in experiment [7] and in experiment [8] was above 100 µM throughout. For the same compound, the TGI in [9] is above 100 µM.

`COc1ccc2c3c([nH]c2c1)CCN(CCCC(=O)c1ccc(F)cc1)C3`: the TGI in experiment [10] was found to be 29.7 µM; in experiment [2] it was 33.9 µM; in [3], 17.7 µM; in experiment [4] it was 32.7 µM; in experiment [5] it was 31 µM; in experiment [6], 32 µM. Besides, the TGI in [7] stood at 29.3 µM; in experiment [8], 31.7 µM; in [9], 27.4 µM.

As for `CC(C)=CCC/C(C)=C/COc1c2ccoc2cc2oc(=O)ccc12`, the TGI in experiment [10] is 68.2 µM; in experiment [1] it was above 100 µM; in experiment [3], 79.7 µM; in experiment [4] it was above 100 µM; in experiment [5] it was above 100 µM; in experiment [6] it was 38.3 µM. The TGI was above 100 µM in experiment [7], 90.4 µM in experiment [8] and 38.3 µM in experiment [9].

As to `NC(CSSCC(N)=NCC12CC3CC(CC(C3)C1)C2)=NCC12CC3CC(CC(C3)C1)C2`, the TGI was found to be 51 µM in experiment [10]; 32.5 µM in experiment [2]; 40.9 µM in experiment [4]; 28.1 µM in experiment [5]; 55.1 µM in experiment [6]; 44.4 µM in [7]. For the same compound, the TGI in experiment [8] was 30.5 µM; in [9], 26.1 µM.

With `O=C(c1ccc(Cl)cc1)N(C(=S)N1CCN(c2ccccn2)CC1)C1CCCCC1`, the TGI in experiment [4], in experiment [6], in [7], in experiment [8] and in experiment [9] was above 100 µM each time.

For `CCOC(=O)/C(=C/c1ccc(C(=O)OC)cc1)N(CC)CC`, the TGI in [3], in experiment [4], in experiment [6], in [7], in [8] and in experiment [9] was above 100 µM each time.

In the case of `O=C(CSc1nc(-c2ccccc2)c(-c2ccccc2)[nH]1)N/N=C/c1ccc(O)cc1`, the TGI in [3] is 61.1 µM; in experiment [4], 95.7 µM; in experiment [6] it was 67.2 µM; in [7], above 100 µM; in experiment [8] it was above 100 µM; in experiment [9] it was 54.9 µM.

In the case of `C/C=C1\CN(C(=O)OC(C)(C)C)C1C(=O)OC(C)(C)C` (stereo not given), the TGI in experiment [10], in experiment [1], in [3], in experiment [4], in [5] and in experiment [6] was above 100 µM in each case. In addition, the concentration for total growth inhibition (TGI) in experiment [7], in experiment [8] and in experiment [9] was above 100 µM throughout.

Consider `N#C/C(=C/c1ccc2c(c1)OCO2)C(=O)c1ccccc1`, for which the TGI in experiment [10], in experiment [3], in [4], in experiment [6], in experiment [7] and in experiment [8] was above 100 µM in each case. Further, in experiment [9], the TGI was above 100 µM.

In the case of `OCCN(/N=C\c1ccc2ccccc2c1)C1=NCCN1`, the TGI in experiment [1] is above 100 µM; in [2], above 100 µM; in experiment [3] it was 32.6 µM; in experiment [4], above 100 µM; in experiment [5], 32.7 µM; in experiment [6], 42.6 µM. In addition, the TGI in experiment [7] amounted to 35.3 µM; in experiment [9], 48.6 µM.

Consider `CCOC(=O)C(Cc1c[nH]c2cc([N+](=O)[O-])ccc12)NS(=O)(=O)c1ccc2ccccc2c1` (stereo not given), for which the TGI was determined as 80 µM in [10]; 49.4 µM in experiment [3]; 48 µM in experiment [4]; 35.1 µM in [6]; 32.1 µM in [7]; 28.8 µM in experiment [8]. Besides, the TGI in experiment [9] turned out to be 31.3 µM.

Consider `CCOC(=O)Nc1ccc2c(c1)c(CCCCCCc1nc3ccccc3c3ccc(NC(=O)OCC)cc13)nc1ccccc12`, for which the TGI is 67.3 µM in [10]; above 100 µM in [2]; above 100 µM in [3]; above 100 µM in [4]; above 100 µM in experiment [5]; 71.2 µM in experiment [6]. The TGI in [7], in experiment [8] and in experiment [9] was above 100 µM each time.

The record behind these values is PubChem BioAssay (NCI).
